Tested on: inside of the forearm
Experiment: Skin conductance with time after water supply to the site treated with emollient milk
Type: in vivo, human
Settings: conclusion from Tables 5 and 6; conductance on forearm after water supply
Description: Each of the emollient milks described in Table 3 was applied to the inside of the forearm in the same manner in Test Example 2, and dried for 30 minutes. A drop of distilled water was placed on that site to conduct water supply for 10 seconds, followed by wiping off. Then, the conductance values were measured with time for 15 minutes (n=3).
Process: Emollient milks having the same components as described in Table 3 with the exception that 3-(menthoxy)propane-1,2-diol was substituted by p-menthane-3,8-diol were prepared (Example 3 and Comparative Example 3). Each was applied to the inside of the forearm in an amount of 65 mg/cm^2, and evaluated in the same manner as in Test Example 3.

## CC1CCC(C(C)(C)O)C(O)C1 (stereo not shown) [p-menthane-3,8-diol]
  water-retention function (in words): excellent water-retention function
